{
  "source": "patent US20110070232A1",
  "about": "“Combination Therapy with an Antitumor Alkaloid” (Pharma Mar, S.A., priority 2008, published 2011)",
  "key": {"[1]": {"system": "MIA PaCa-2 tumors", "format": "in vivo, mice", "settings": "mg/kg/day: PM00104 0.90 IV", "source_text": "Female athymic nude mice (Harlan Sprague Dawley, Madison, Wis.) were utilized for all experiments. Animals were housed in ventilated rack caging with food and water ad libitum. The mice were acclimated for at least 5 days prior to tumor implantation with a tumor cell suspension.\nThe tumor model used in these studies was MIAPaCA-2 cell line, which was obtained from the ATCC (Manassas, Va.).\nEach animal was implanted subcutaneously (SC) on the right flank, using a trochar, with 1×10^7 MIAPaCA-2 cells, from in vitro passage 18, in a 0.2 mL suspension of 50% Matrigel/50% serum free medium, without antibiotics. Matrigel is a biological extracellular matrix that is liquid at 4° C. and solid at 37° C., and it promotes tumor growth by maintaining the cells in close association in a localized area. Bacterial cultures were performed on aliquots of the cells prepared for implantation.\nTumor measurements were determined by using Vernier calipers. The formula to calculate volume for a prolate ellipsoid was used to estimate tumor volume (mm^3) from 2-dimensional tumor measurements: Tumor volume (mm^3)=[L×W^2]÷2, where L is the length and it is the longest diameter in mm, and W is the width and it is the shortest diameter in mm of a tumor. Assuming unit density, volume was converted to weight (i.e., 1 mm^3=1 mg).\nTreatments were initiated on DPI (Day Post Implantation) 13. In these experiments, the combination therapy groups were treated by co-administering the two drugs at the same time, with no attempt to sequence the treatments.\n(§1) Tumor size measurements were recorded twice weekly from the treatment initiation until the termination of the study.\n(§2) Mean, standard deviation and standard error of the mean were determined for tumor volume for all animal groups at all assessments. Student's t test was performed on tumor volumes at each measurement day, including at the end of the study, to determine whether there were any statistically significant differences between combination treatment groups and single monotherapy treatment groups.\nThe definition and criteria for the evaluation of potentiation and the degree of additivity for the combination therapy were as follows:\nAdditivity was determined as discussed above by comparing the % of tumor growth inhibition of the monotherapy groups versus those of the combination group as follows: • 1. Determine the % of tumor growth inhibition, as 100-% T/C, for each of the drugs administered as monotherapy at the doses used in the combinations. % T/C was obtained by comparing the mean tumor weight in the treatment groups (T) to the mean tumor weight in the control group (C) (T/C×100%). • 2. The two scores were added together to determine the “expected response” if each agent produced the same response as it did when administered as monotherapy. • 3. This “expected response” was subtracted from the % of tumor growth inhibition determined for the combination therapy group: • a. […] If the resulting number was close to zero, the effect of combining the two drugs was determined as additive. • c."}, "[2]": {"system": "5637 human bladder carcinoma cell line", "experiment": "IC50 determination, MTS assay, 72 h (Example 2)", "format": "cell-based", "settings": "Homo sapiens, 72 hours of drug exposure, read-out: IC50", "procedure": "(§3) The following agents were evaluated in combination with PM00104: gemcitabine (Gemzar®) and cisplatin. The human bladder carcinoma cell lines selected for this assay were the following: 5637 and UM-UC-3 cell lines. 5637 cell line was grown in RPMI 1640 medium supplemented with 10% FBS, 1.5 g/L sodium bicarbonate, 4.5 g/L glucose, 10 mM HEPES, 1 mM sodium pyruvate, and 2 mM L-glutamine. UM-UC-3 cell line was grown in MEM Eagle's medium supplemented with 10% FBS and 2 mM L-glutamine.\n(§4) a. […] It was used the same methodology as those disclosed in Example 1.\n(§5) IC50 values were calculated from an average of three to four assays for each of the test agents."}, "[3]": {"system": "UM-UC-3 human bladder carcinoma cell line", "experiment": "IC50 determination, MTS assay, 72 h (Example 2)", "format": "cell-based", "settings": "Homo sapiens, UMUC3, 72 hours of drug exposure, read-out: IC50", "procedure": "as §3, §4, §5"}, "[4]": {"system": "BxPC-3 tumors", "format": "in vivo, mice", "settings": "mg/kg/day: PM00104 0.90 IV", "procedure": "Female CB17.SCID mice (Charles River Lab.) were utilized for all experiments. Animals were housed in ventilated rack caging with food and water ad libitum. The mice were acclimated for at least 5 days prior to tumor implantation with a tumor cell suspension.\nThe tumor model used in these studies was BxPC-3 cell line, which was obtained from the ATCC (Manassas, Va.).\nTreatments were initiated on DPI 9.\nas §1, §2"}, "[5]": {"settings": "day 13, gemcitabine 140 IP, erlotinib 100 PO"}, "[6]": {"settings": "day 15, gemcitabine 140 IP, erlotinib 100 PO"}, "[7]": {"settings": "day 19, gemcitabine 140 IP, erlotinib 100 PO"}, "[8]": {"settings": "day 22, gemcitabine 140 IP, erlotinib 100 PO"}, "[9]": {"settings": "day 27, gemcitabine 140 IP, erlotinib 100 PO"}, "[10]": {"settings": "day 29, gemcitabine 140 IP, erlotinib 100 PO"}, "[11]": {"settings": "day 33, gemcitabine 140 IP, erlotinib 100 PO"}, "[12]": {"settings": "day 36, gemcitabine 140 IP, erlotinib 100 PO"}},
  "note": "Where two headings read alike, the source gives them in different places.",
  "data": [
    {"smiles": "COc1c(C)cc2c(c1O)[C@@H]1[C@@H]3Cc4c(OC(C)=O)c(C)c5c(c4[C@H](CNC(=O)/C=C/c4cccc(C(F)(F)F)c4)N3[C@@H](O)[C@H](C2)N1C)OCO5", "note": "[PM00104]", "values": [
      {"measurement": "% Inhibition", "setting": "[1]; day 13, erlotinib 50 PO", "value": 0.9, "unit": "%"},
      {"measurement": "% Inhibition", "setting": "[1]; [5]", "value": 0.9, "unit": "%"},
      {"measurement": "% T/C on day", "setting": "[1]; [5]", "value": 99.1, "unit": "%"},
      {"measurement": "% Inhibition", "setting": "[1]; day 15, erlotinib 50 PO", "value": 12.9, "unit": "%"},
      {"measurement": "% Inhibition", "setting": "[1]; [6]", "value": 12.9, "unit": "%"},
      {"measurement": "% T/C on day", "setting": "[1]; [6]", "value": 87.1, "unit": "%"},
      {"measurement": "% Inhibition", "setting": "[1]; day 19, erlotinib 50 PO", "value": 22.8, "unit": "%"},
      {"measurement": "% Inhibition", "setting": "[1]; [7]", "value": 22.8, "unit": "%"},
      {"measurement": "% T/C on day", "setting": "[1]; [7]", "value": 77.2, "unit": "%"},
      {"measurement": "% Inhibition", "setting": "[1]; day 22, erlotinib 50 PO", "value": 39.2, "unit": "%"},
      {"measurement": "% Inhibition", "setting": "[1]; [8]", "value": 39.2, "unit": "%"},
      {"measurement": "% T/C on day", "setting": "[1]; [8]", "value": 60.8, "unit": "%"},
      {"measurement": "% Inhibition", "setting": "[1]; day 27, erlotinib 50 PO", "value": 30.8, "unit": "%"},
      {"measurement": "% Inhibition", "setting": "[1]; [9]", "value": 30.8, "unit": "%"},
      {"measurement": "% T/C on day", "setting": "[1]; [9]", "value": 69.2, "unit": "%"},
      {"measurement": "% Inhibition", "setting": "[1]; day 29, erlotinib 50 PO", "value": 40.0, "unit": "%"},
      {"measurement": "% Inhibition", "setting": "[1]; [10]", "value": 40.0, "unit": "%"},
      {"measurement": "% T/C on day", "setting": "[1]; [10]", "value": 60.0, "unit": "%"},
      {"measurement": "% Inhibition", "setting": "[1]; day 33, erlotinib 50 PO", "value": 36.1, "unit": "%"},
      {"measurement": "% Inhibition", "setting": "[1]; [11]", "value": 36.1, "unit": "%"},
      {"measurement": "% T/C on day", "setting": "[1]; [11]", "value": 63.9, "unit": "%"},
      {"measurement": "% Inhibition", "setting": "[1]; day 36, erlotinib 50 PO", "value": 43.4, "unit": "%"},
      {"measurement": "% Inhibition", "setting": "[1]; [12]", "value": 43.4, "unit": "%"},
      {"measurement": "% T/C on day", "setting": "[1]; [12]", "value": 56.6, "unit": "%"},
      {"measurement": "IC50", "setting": "[2]", "value": 5.6, "unit": "ng/mL"},
      {"measurement": "IC50", "setting": "[3]", "value": 6.9, "unit": "ng/mL"},
      {"measurement": "% Inhibition", "setting": "[4]; day 9, erlotinib 15 PO", "value": "−3.8", "unit": "%"},
      {"measurement": "% Inhibition", "setting": "[4]; day 9, erlotinib 30 PO", "value": "−3.8", "unit": "%"},
      {"measurement": "% Inhibition", "setting": "[4]; day 9, erlotinib 50 PO", "value": "−3.8", "unit": "%"},
      {"measurement": "% T/C on day", "setting": "[4]; day 9, erlotinib 50 PO", "value": 103.8, "unit": "%"},
      {"measurement": "% Inhibition", "setting": "[4]; day 12, erlotinib 15 PO", "value": 10.0, "unit": "%"},
      {"measurement": "% Inhibition", "setting": "[4]; day 12, erlotinib 30 PO", "value": 10.0, "unit": "%"},
      {"measurement": "% Inhibition", "setting": "[4]; day 12, erlotinib 50 PO", "value": 10.0, "unit": "%"},
      {"measurement": "% T/C on day", "setting": "[4]; day 12, erlotinib 50 PO", "value": 90.0, "unit": "%"},
      {"measurement": "% Inhibition", "setting": "[4]; day 15, erlotinib 15 PO", "value": "−20.0", "unit": "%"},
      {"measurement": "% Inhibition", "setting": "[4]; day 15, erlotinib 30 PO", "value": "−20.0", "unit": "%"},
      {"measurement": "% Inhibition", "setting": "[4]; day 15, erlotinib 50 PO", "value": "−20.0", "unit": "%"},
      {"measurement": "% T/C on day", "setting": "[4]; day 15, erlotinib 50 PO", "value": 120.0, "unit": "%"},
      {"measurement": "% Inhibition", "setting": "[4]; day 19, erlotinib 15 PO", "value": 1.4, "unit": "%"},
      {"measurement": "% Inhibition", "setting": "[4]; day 19, erlotinib 30 PO", "value": 1.4, "unit": "%"},
      {"measurement": "% Inhibition", "setting": "[4]; day 19, erlotinib 50 PO", "value": 1.4, "unit": "%"},
      {"measurement": "% T/C on day", "setting": "[4]; day 19, erlotinib 50 PO", "value": 98.6, "unit": "%"},
      {"measurement": "% Inhibition", "setting": "[4]; day 21, erlotinib 15 PO", "value": 30.1, "unit": "%"},
      {"measurement": "% Inhibition", "setting": "[4]; day 21, erlotinib 30 PO", "value": 30.1, "unit": "%"},
      {"measurement": "% Inhibition", "setting": "[4]; day 21, erlotinib 50 PO", "value": 30.1, "unit": "%"},
      {"measurement": "% T/C on day", "setting": "[4]; day 21, erlotinib 50 PO", "value": 69.9, "unit": "%"},
      {"measurement": "% Inhibition", "setting": "[4]; day 26, erlotinib 15 PO", "value": 17.4, "unit": "%"},
      {"measurement": "% Inhibition", "setting": "[4]; day 26, erlotinib 30 PO", "value": 17.4, "unit": "%"},
      {"measurement": "% Inhibition", "setting": "[4]; day 26, erlotinib 50 PO", "value": 17.4, "unit": "%"},
      {"measurement": "% T/C on day", "setting": "[4]; day 26, erlotinib 50 PO", "value": 82.6, "unit": "%"},
      {"measurement": "% Inhibition", "setting": "[4]; day 29, erlotinib 15 PO", "value": 30.6, "unit": "%"},
      {"measurement": "% Inhibition", "setting": "[4]; day 29, erlotinib 30 PO", "value": 30.6, "unit": "%"},
      {"measurement": "% Inhibition", "setting": "[4]; day 29, erlotinib 50 PO", "value": 30.6, "unit": "%"},
      {"measurement": "% T/C on day", "setting": "[4]; day 29, erlotinib 50 PO", "value": 69.4, "unit": "%"},
      {"measurement": "% Inhibition", "setting": "[4]; day 33, erlotinib 15 PO", "value": 17.8, "unit": "%"},
      {"measurement": "% Inhibition", "setting": "[4]; day 33, erlotinib 30 PO", "value": 17.8, "unit": "%"},
      {"measurement": "% Inhibition", "setting": "[4]; day 33, erlotinib 50 PO", "value": 17.8, "unit": "%"},
      {"measurement": "% T/C on day", "setting": "[4]; day 33, erlotinib 50 PO", "value": 82.2, "unit": "%"},
      {"measurement": "% Inhibition", "setting": "[4]; day 40, erlotinib 15 PO", "value": 14.2, "unit": "%"},
      {"measurement": "% Inhibition", "setting": "[4]; day 40, erlotinib 30 PO", "value": 14.2, "unit": "%"},
      {"measurement": "% Inhibition", "setting": "[4]; day 40, erlotinib 50 PO", "value": 14.2, "unit": "%"},
      {"measurement": "% T/C on day", "setting": "[4]; day 40, erlotinib 50 PO", "value": 85.8, "unit": "%"}
    ]}
  ]
}
